# Biological target: T1, dehydropeptidase-I (renal dipeptidase, EC 3.4.13.11) (Sus scrofa, UniProt P22412)
# T1 construct: a solubilized preparation of dipeptidase isolated from hog kidneys; from tissue; host or cells: hog kidney
# T1 sequence (P22412 17-409): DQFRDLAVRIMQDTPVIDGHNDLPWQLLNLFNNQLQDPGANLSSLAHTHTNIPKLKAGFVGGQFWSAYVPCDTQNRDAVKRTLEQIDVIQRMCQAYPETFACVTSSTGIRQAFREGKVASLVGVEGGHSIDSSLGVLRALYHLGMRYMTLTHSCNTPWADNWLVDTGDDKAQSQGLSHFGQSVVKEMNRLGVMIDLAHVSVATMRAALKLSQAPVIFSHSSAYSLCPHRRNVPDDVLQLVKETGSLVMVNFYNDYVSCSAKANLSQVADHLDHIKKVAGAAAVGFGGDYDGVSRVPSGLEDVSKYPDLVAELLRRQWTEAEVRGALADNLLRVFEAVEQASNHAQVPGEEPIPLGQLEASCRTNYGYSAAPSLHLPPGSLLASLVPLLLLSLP
# Experiment: Renal dehydropeptidase I inhibition (hydrolysis of glycyldehydrophenylalanine)
# Assay type: biochemical
# Settings: hog kidney dipeptidase, GDP 0.05 mM, MOPS pH 7.1, 37° C.; Ki stated as concentration which achieves 50% inhibition
# Description: This measured the ability of compounds to inhibit hydrolysis of glycyldehydrophenylalanine (GDP) by a solubilized preparation of dipeptidase isolated from hog kidneys. The procedure is as follows: to a 1 ml system containing 50 mM "MOPS" (3-(N-morpholino)propanesulfonic acid) buffer, pH 7.1, is added 5 μg of lyophilized enzyme, and the test compound at a final concentration of 0.1 mM. After a five minute incubation at 37° C., GDP is added to a final concentration of 0.05 mM. […] Inhibition of the enzyme is gauged by comparison to a standard run containing no inhibitor and is expressed as the inhibitor binding constant, Ki.
row,Ki [µM],SMILES
1,0.004,CCCCC(CP(=O)(O)C(C)N)C(=O)O (racemic) [DL; R2=n-butyl]

# Biological target: T2, D-Alanyl-D-Alanine ligase (Enterococcus hirae, UniProt Q47827)
# T2 sequence (Q47827 1-358): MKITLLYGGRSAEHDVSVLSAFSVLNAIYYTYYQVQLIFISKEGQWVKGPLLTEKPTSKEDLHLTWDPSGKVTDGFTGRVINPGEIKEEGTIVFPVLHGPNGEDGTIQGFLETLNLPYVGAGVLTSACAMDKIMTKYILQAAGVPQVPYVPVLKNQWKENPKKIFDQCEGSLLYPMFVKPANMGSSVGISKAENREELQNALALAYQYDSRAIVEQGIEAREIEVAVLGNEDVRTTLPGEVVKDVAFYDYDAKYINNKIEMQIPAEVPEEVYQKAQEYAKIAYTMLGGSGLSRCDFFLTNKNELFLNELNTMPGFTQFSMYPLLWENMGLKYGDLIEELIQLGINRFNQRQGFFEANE
# Experiment: D-Alanyl-D-Alanine ligase in vitro inhibition
# Assay type: biochemical
# Settings: inhibitor pre-incubated with enzyme 40 minutes at room temperature, then 37° C. for 30 minutes; 0.005M (14C-1)-D-alanine; read-out: D-AlaAla Ligase Inhibition IC50
# Description: The ligase enzyme inhibitory activity of compounds of Formula I have been evaluated in vitro with only minor modifications of the procedures of F. C. Neuhaus (Biochemistry 3, 471-480 (1964) and references cited therein) using D-cycloserine as a control and standard ligase inhibitor. The procedure is as follows:
# Streptococcus faecalis (ATCC 8043) was grown as described by Neuhaus (J. Biol. Chem., 237:778, 1962). Cell-free extracts were prepared by sonication followed by centrifugation at 27,000×g for 30 minutes. Protein was precipitated with 55% ammonium sulfate. The precipitate was dissolved in 0.05M Tris-Cl buffer (PH 7.0), dialyzed against 0.0025M glutathione and stored in liquid nitrogen. No loss of activity was observed after 1 year.
# The assay mixture contained 0.05M Tris-Cl buffer (pH 7.9), 0.01M KCl, 0.008M MgCl2, 0.005M ATP, 0.005M (14C-1)-D-alanine and 5 μof enzyme (specific activity=0.38 units/mg protein). Assay volume was 0.1 ml.
# Inhibitors were pre-incubated with enzyme, MgCl2, KCl and buffer, for 40 minutes at room temperature, before addition of ATP and substrate. Samples were subsequently incubated at 37° C. for 30 minutes.
# Twenty μl of each sample was applied to the preabsorbent layer of high resolution, pre-channeled silica-gel TLC plates to stop the reaction. Plates were developed in ethanol:ammonium hydroxide: H2 O (11:1:8) for 2-3 hours and the radioactive zones located and integrated with a Berthold Linear Analyzer. […] IC50 's were determined for active compounds (70% inhibition).
row,SMILES,IC50 [µM]
1,CC(N)P(=O)(O)C/C(=C/Cc1ccccc1)C(=O)O (racemic) [DL; R5=benzyl (E isomers)],210
2,"CCCCCC=C(CP(=O)(O)C(C)N)C(=O)O (racemic) [DL; R5=n-pentyl, (E,Z isomers), 1-Aminoethyl-(2-carboxy-oct-2-enyl)phosphinic acid (E/Z mixture)]",700
3,"CCC(CP(=O)(O)[C@@H](C)N)C(=O)O (stereo partly drawn) [D; R2=ethyl; R3=H, 1-D-Aminoethyl-(2l-carboxy-1-n-butyl)phosphinic acid]",45
5,"CCCCCCCC(CP(=O)(O)[C@@H](C)N)C(=O)O (stereo partly drawn) [D; R2=n-heptyl; R3=H, 1-D-Aminoethyl-[2-carboxy-1-nonyl]-phosphinic acid]",4
6,C=C(CP(=O)(O)[C@@H](C)N)C(=O)O [D; R5=H],210
8,"COC(=O)C(C)CP(=O)(O)C(C)N (stereo not drawn) [DL; R2=methyl; R3=methyl, 1-Aminoethyl-(2-carbomethoxy-1-propyl)phosphinic acid]",60
9,"CC(N)P(=O)(O)CC(CCCc1ccccc1)C(=O)O (stereo not drawn) [DL; R2=phenylpropyl; R3=H, 1-Aminoethyl-[2-carboxy-5-phenyl-1-n-pentyl]-phosphinic acid]",20

# Source: patent US5099063A, “Certain phosphinic acid derivatives having antibacterial activity” (Merck & Co., Inc., priority 1990, dated 1992)
